Assay results published in paper PMC12326976 (Antimicrobial Agents and Chemotherapy, 2025).
Bridge positions count the residues as written; N and C are the ends. Ends that are not written are not given here. I, II: the chains in the order shown.

Tests used:
[1] = tested on: H1N1 virus; experiment: Plaque reduction assay, H1N1 in MDCK cells; format: cell-based, influenza A/Hong Kong/415742/2009 (H1N1); conditions: virus treated with 4H30 50 µg mL^−1, then diluted to 0.05 µg mL^−1 for plaque assay, Fig. 1e
Protocol: (§1) The antiviral activity of peptides was measured by plaque reduction assay. Briefly, peptides were dissolved in PBS or 20% PBS. Peptides (0.2-25.0 µg mL^−1) were premixed with H1N1 virus at room temperature. After 30 min of incubation, the peptide-virus mixture was transferred to MDCK cells for infection at 37°C. At 1 hpi, infectious media were removed, and then 1% low melting agar was added to cells. Cells were fixed using 4% formalin at 2–3 dpi. […] (0.1%) was added to cells for cell staining to count viral plaques.

[2] = tested on: H3N2 virus; experiment: Plaque assay, H3N2 in MDCK cells; format: cell-based, influenza H3N2 virus; conditions: plaque number normalized to untreated virus, Fig. S2
Protocol: as §1
Fig. S2. The antiviral activity of 4H30 against H3N2 virus in MDCK cells. H3N2 virus was treated with the indicated concentrations of 4H30 to infect MDCK cells. The percentage (%) was the plaque number of virus treated with 4H30 normalized to virus without treatment (0).

[3] = tested on: H1N1 virus; format: cell-based, influenza H1N1 virus
[4] = tested on: H1N1 virus; format: cell-based, influenza H1N1 virus; remark: listed apart in the source
[5] = tested on: H1N1 virus; format: cell-based, influenza H1N1 virus; remark: listed apart in the source
[6] = tested on: MDCK cells; experiment: Cytotoxicity MTT assay in MDCK cells; format: cell-based, canine; conditions: 24 h incubation, Fig. 1f
Protocol: Cytotoxicity of peptides was determined by detecting 50% cytotoxic concentration (CC50) using a tetrazolium-based colorimetric MTT assay ([27]). Cells were seeded in a 96-well cell culture plate at an initial density of 4 × 10^4 cells per well in MEM, supplemented with 10% FBS and incubated overnight. Cell culture media were removed, and then MEM supplemented with various concentrations of peptides and 1% FBS was added to each well. After 24 h incubation at 37°C, the MTT solution (5 mg mL^−1, 10 µL per well) was added to each well for incubation at 37°C for 4 h. Then, 100 µL of 10% SDS in 0.01M HCl was added to each well. After further incubation at room temperature with shaking overnight, the plates were read at OD570 using the VictorTM X3 Multilabel Reader (PerkinElmer, USA). Cell culture wells without peptides were used as the experiment control, and the medium was a blank control.

[7] = target: T1, LDLR (Homo sapiens, UniProt P01130); experiment: ELISA binding assay, LDLR; conditions: 4H30 1.0 µg, 0.25 µg and 0 µg, Fig. 4g
T1 construct: His; purchased Sino 10231-H081-50
Protocol: Peptides (1.0 µg per well) were dissolved in H2O. Influenza HA, NA (Sino, Cat^# 11058-V07B), or LDLR (Sino, Cat^# 10231-H081-50, 100 ng) dissolved in PBS was coated onto ELISA plates, incubated at 4°C overnight, and blocked with BSA at 4°C overnight. HA or VP1 was added to wells for binding and then determined by incubation with goat anti-His-HRP (Invitrogen, Cat^# R93125, 1: 2,000) at 37°C for 30 min. The reaction was developed by adding 100 µL of the TMB single solution (Life Technologies, Cat^# 002023) for 15 min at 37°C and stopped with 50 µL of 1 M H2SO4. Readings were obtained in an ELISA plate reader (Victor 1420 Multilabel Counter; PerkinElmer) at 450 nm.

[8] = tested on: rhinovirus A1; format: cell-based
[9] = tested on: rhinovirus A1; experiment: Viral attachment assay, rhinovirus A1 on RD cells; format: cell-based; conditions: virus treated with 4H30, attachment at 4°C, Fig. 4d
Protocol: Viruses (H1N1 or rhinovirus A1) were treated with DMEM, 4H30 (25 µg mL^−1), or an influenza neutralization antibody at room temperature for 30 min and then added to cells for attachment at 4°C for 1 h. After washing the unbound virus, the attached virus on cells was measured by RT-qPCR. At least two experiments with biological duplication samples were included for each treatment.

[10] = tested on: rhinovirus A1; format: cell-based; remark: listed apart in the source
[11] = tested on: rhinovirus A1; experiment: Rhinovirus A1 in H1-Hela cells; format: cell-based; conditions: 4H30 25 μg mL^−1, viral RNA copies in cells at 16 hpi, Fig. S6a
Protocol: (§2) Fig. S6. […] H1-Hela cells are the standard cell model for efficient Rhinovirus A16 (RV-A16) replication. RV-A1 (a) or RV-A16 (b) was treated with 4H30 (25 μg mL^−1) for one hour of infection and then the infectious media were replaced with MEM with 4H30 for viral culture. Viral RNA copies in cells were measured at 16 hpi. Virus in MEM was the control. No viral infection was the mock control. Data are presented as mean ± SD of indicated biological samples.

[12] = tested on: rhinovirus A16; experiment: Rhinovirus A16 in H1-Hela cells; format: cell-based; conditions: 4H30 25 μg mL^−1, viral RNA copies in cells at 16 hpi, Fig. S6b
Protocol: as §2

[13] = tested on: HA-mediated cell-cell fusion (pH7N7-HA); conditions: 125 µg mL^−1, 293T cells, pH 5.0, Fig. 2b
[14] = mouse, in vivo; cited from earlier work

T1 sequence (P01130 22-860): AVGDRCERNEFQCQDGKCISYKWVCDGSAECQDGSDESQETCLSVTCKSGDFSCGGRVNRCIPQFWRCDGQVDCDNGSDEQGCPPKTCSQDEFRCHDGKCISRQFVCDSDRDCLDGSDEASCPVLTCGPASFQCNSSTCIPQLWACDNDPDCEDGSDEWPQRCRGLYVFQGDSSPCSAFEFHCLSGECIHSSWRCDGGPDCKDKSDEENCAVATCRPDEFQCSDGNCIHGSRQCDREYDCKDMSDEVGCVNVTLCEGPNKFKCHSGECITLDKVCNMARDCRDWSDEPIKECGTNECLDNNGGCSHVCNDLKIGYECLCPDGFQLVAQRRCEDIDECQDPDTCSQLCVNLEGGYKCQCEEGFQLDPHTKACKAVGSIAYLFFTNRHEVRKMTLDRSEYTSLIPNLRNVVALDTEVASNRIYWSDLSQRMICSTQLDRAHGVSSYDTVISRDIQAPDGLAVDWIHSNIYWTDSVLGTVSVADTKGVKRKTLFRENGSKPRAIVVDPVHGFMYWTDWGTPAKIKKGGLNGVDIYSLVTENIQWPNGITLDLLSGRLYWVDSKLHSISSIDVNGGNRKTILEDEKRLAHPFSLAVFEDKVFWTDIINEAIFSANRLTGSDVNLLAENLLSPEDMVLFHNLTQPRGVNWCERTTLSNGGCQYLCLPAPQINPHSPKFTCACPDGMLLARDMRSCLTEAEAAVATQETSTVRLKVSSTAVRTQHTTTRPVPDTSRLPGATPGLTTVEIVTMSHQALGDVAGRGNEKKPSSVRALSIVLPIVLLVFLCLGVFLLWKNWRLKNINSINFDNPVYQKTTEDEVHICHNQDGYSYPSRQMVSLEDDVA

I: GAICHPVFCPRRYKQIGTCGLPGTKCCKKPKK / II: GAICHPVFCPRRYKQIGTCGLPGTKCCKKPK / III: GAICHPVFCPRRYKQIGTCGLPGTKCCKKP / IV: GAICHPVFCPRRYKQIGTCGLPGTKCCKKP (amide I:31-IV:C, I:32-II:C, II:31-III:C; cysteines drawn unpaired) [4H30]
antiviral activity after treating virus and 1,000-fold dilution [1]: displayed significant antiviral activity against the virus
inhibition of H3N2 virus infection [2]: significantly inhibited group 2 influenza H3N2 virus infection
H1N1 replication, cells treated before and after infection (1h-Pre, 1h-Post) [3]: did not show significant antiviral activity when cells were treated before and after viral infection
H1N1 replication, virus treated before infection [3]: inhibited viral replication when the virus was treated with 4H30 before viral infection
H1N1 entry into cells [4]: prevented viral entry into cells
H1N1 viral release, supernatant virus at 8 hpi [5]: significantly inhibited H1N1 viral release from cells
H1N1 viral release, supernatant virus at 18 hpi [5]: inhibited viral release at 18 hpi
inhibition of viral release after removal of GAGs [5]: removal of GAGs reduced the activity of 4H30 in inhibiting viral release
viral HA on cell membrane, anti-HA staining at 18 hpi [5]: more viral HA was detected on the cell membrane
cytotoxicity in MDCK cells [6]: did not show noticeable toxicity in MDCK cells
binding to LDLR [7]: bound to the LDLR receptor of rhinovirus
rhinovirus entry [8]: blocked rhinovirus entry on the cell membrane
rhinovirus attachment to RD cells [9]: reduced rhinovirus attachment to RD cells
rhinovirus release from RD cells [10]: did not inhibit viral release
inhibition of rhinovirus A1 in H1-Hela cells [11]: inhibited rhinovirus A1 in H1-Hela cells
inhibition of rhinovirus A16 in H1-Hela cells [12]: did not show antiviral activity against rhinovirus A16
inhibition of HA-mediated cell-cell fusion induced by low pH [13]: did not effectively block HA-mediated cell-cell fusion
toxicity in mice [14]: without causing apparent toxicity
